Measured values from the supplement of paper PMC10307832.

Tests used:
Experiment in all cases: relative viability (nuclei count vs DMSO), 5 days (fraction); higher = more cells survive
[1] = compound: C1=CC2=C(C=C(C(=C2N=C1)O)N=NC3=CC4=C(C=C3)C=C(C=C4)S(=O)(=O)O)S(=O)(=O)O + CCNC(=O)c1noc(-c2cc(C(C)C)c(O)cc2O)c1-c1ccc(CN2CCOCC2)cc1 [Luminespib] (partner 0.01 µM)
In short: (§1)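 Lung cancer cell lines were pin-tool dosed in 1536-well plates on the day after seeding, with either a lone drug or a fixed anchor-drug dose plus five library-drug doses (not always all listed) in √10 steps. Nuclei were counted on 4× images after 5 days. Relative viability is the ratio of treated-well to vehicle-well nuclei counts, with each value a median of duplicate plates.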

[2] = compound: C1=CC2=C(C=C(C(=C2N=C1)O)N=NC3=CC4=C(C=C3)C=C(C=C4)S(=O)(=O)O)S(=O)(=O)O + N=C(N)NC(=N)NCCc1ccccc1 [Phenformin] (partner 250 µM)
In short: as §1

AT-7519 + Luminespib = compound: O=C(NC1CCNCC1)c1n[nH]cc1NC(=O)c1c(Cl)cccc1Cl [AT-7519] + CCNC(=O)c1noc(-c2cc(C(C)C)c(O)cc2O)c1-c1ccc(CN2CCOCC2)cc1 [Luminespib] (partner 0.01 µM)
In short: as §1

AT-7519 + Phenformin = compound: O=C(NC1CCNCC1)c1n[nH]cc1NC(=O)c1c(Cl)cccc1Cl [AT-7519] + N=C(N)NC(=N)NCCc1ccccc1 [Phenformin] (partner 250 µM)
In short: as §1

UMC-11
relative viability ([1]; first compound 0.08 µM): 1.14 | relative viability ([1]; first compound 0.253 µM): 1.04 | relative viability ([1]; first compound 0.8 µM): 0.862 | relative viability ([1]; first compound 2.53 µM): 0.992 | relative viability ([1]; first compound 8 µM): 1.02 | relative viability ([2]; first compound 0.08 µM): 0.326 | relative viability ([2]; first compound 0.253 µM): 0.31 | relative viability ([2]; first compound 0.8 µM): 0.336 | relative viability ([2]; first compound 2.53 µM): 0.345 | relative viability ([2]; first compound 8 µM): 0.338 | relative viability (AT-7519 + Luminespib; first compound 0.01 µM): 1.06 | relative viability (AT-7519 + Luminespib; first compound 0.03162 µM): 0.98 | relative viability (AT-7519 + Luminespib; first compound 0.3162 µM): 0.716 | relative viability (AT-7519 + Luminespib; first compound 1 µM): 0.394 | relative viability (AT-7519 + Phenformin; first compound 0.01 µM): 0.319 | relative viability (AT-7519 + Phenformin; first compound 0.03162 µM): 0.339 | relative viability (AT-7519 + Phenformin; first compound 0.3162 µM): 0.308 | relative viability (AT-7519 + Phenformin; first compound 1 µM): 0.237
